# Measurements as given in ChEMBL document CHEMBL3044550, “Insect antifeedant potent 6-substituted -bromo-2-naphthones” (2011).
# Activity calls are given as the source filed them. No cut-off for these calls is given here.
# Tested on: Achaea janata
# Test: Achaea janata L. fourth-instar larvae fed on 200 ppm compound pre-treated castor leaves for 24 hrs assessed total leaf disks consumed in 24 hrs by leaf disk bioassay
# Format: functional
row,SMILES,Activity
1,COc1ccc2cc(C(=O)CBr)ccc2c1,4
2,O=C(CBr)c1ccc2cc(Cl)ccc2c1,4.5
3,O=C(CBr)c1ccc2cc(O)ccc2c1,4
4,O=C(CBr)c1ccc2cc(F)ccc2c1,5
5,CS(=O)(=O)c1ccc2cc(C(=O)CBr)ccc2c1,9
6,O=C(CBr)c1ccc2ccccc2c1,6.5
7,CSc1ccc2cc(C(=O)CBr)ccc2c1,8
8,O=C(CBr)c1ccc2cc(Br)ccc2c1,3.5
9,Cc1ccc2cc(C(=O)CBr)ccc2c1,9

# Tested on: Achaea janata
# Test: Antifeedant activity against Achaea janata L. fourth-instar larvae fed on 100 ppm compound pre-treated castor leaves for 24 hrs assessed total leaf disks consumed in 24 hrs by leaf disk bioassay
# Format: functional, organism-based
row,SMILES,Activity
1,O=C(CBr)c1ccc2cc(Br)ccc2c1,Active
